# Source: US5733924A, “DC 107 derivatives and treatment methods” (Kyowa Hakko Kogyo Co., Ltd., priority 1995, dated 1998)
# Like-named read-outs stand apart in the source and are kept apart here.
# Key:
# [1] = test system: Enterococcus faecium ATCC 10541; assay: Antibacterial activity, agar dilution method (MIC); assay type: cell-based
# Excerpt: (§1) The antibacterial activity as determined by the agar dilution method using a medium prepared by dissolving 3 g of Bacto-Tryptone (a product of Difco Laboratories), 3 g of a meat extract, 1 g of an yeast extract, 1 g of glucose and 16 g of agar in one liter of water (pH 7).
# EF: Enterococcus faecium ATCC 10541
# [2] = test system: Staphylococcus aureus ATCC 6538P; assay: Antibacterial activity, agar dilution method (MIC); assay type: cell-based; conditions: ATCC6538P
# Excerpt: as §1
# SA: Staphylococcus aureus ATCC 6538P
# [3] = test system: Bacillus subtilis No. 10707; assay: Antibacterial activity, agar dilution method (MIC); assay type: cell-based
# Excerpt: as §1
# BS: Bacillus subtilis No. 10707
# [4] = test system: Klebsiella pneumoniae ATCC 10031; assay: Antibacterial activity, agar dilution method (MIC); assay type: cell-based
# Excerpt: as §1
# KP: Klebsiella pneumoniae ATCC 10031
# [5] = test system: Escherichia coli ATCC 26; assay: Antibacterial activity, agar dilution method (MIC); assay type: cell-based
# Excerpt: as §1
# EC: Escherichia coli ATCC 26
# [6] = test system: P388 Leukemia; assay: Antitumor activity against P388 leukemia in mice (increased life span); assay type: in vivo, CDF1 mice; conditions: Mus musculus, P388, ip, 720 h
# Protocol: Ascites were collected from the abdominal cavity of P388 ascites tumor-bearing cancer mice (DBA/2) on the 7th day after transplantation. A number of P388 cells in the ascites was counted, and a tumor cell floating liquid of 5×10^6 cells/ml was prepared using a physiological saline solution. Then, 0.2 ml of the solution containing 1×10^6 cells was transplanted into the abdominal cavity of CDF1 mice having a body weight of from 20 to 25 g.
# The effect of the test compound was determined in terms of the ratio of average survival days of the group administered with the test compound to average survival days of the control group (non-medicated group) (i.e., an increased life span, ILS%).
# [7] = ATCC10541, EF: Enterococcus faecium ATCC 10541, pH 7, read-out: MIC (minimum growth inhibitory concentration)
# [8] = SA: Staphylococcus aureus ATCC 6538P, agar dilution, pH 7, read-out: MIC (minimum growth inhibitory concentration)
# [9] = BS: Bacillus subtilis No. 10707, pH 7, read-out: MIC (minimum growth inhibitory concentration)
# [10] = ATCC10031, KP: Klebsiella pneumoniae ATCC 10031, agar dilution, pH 7, read-out: MIC (minimum growth inhibitory concentration)
# [11] = ATCC26, EC: Escherichia coli ATCC 26, pH 7, read-out: MIC (minimum growth inhibitory concentration)
# [12] = single i.p. 24 hours after transplantation, CDF1 mice, 30 days observation
# [13] = Enterococcus faecium, ATCC10541, pH 7, read-out: MIC (minimum growth inhibitory concentration), EF: Enterococcus faecium ATCC 10541
# [14] = Staphylococcus aureus, pH 7, read-out: MIC (minimum growth inhibitory concentration)
# [15] = Bacillus subtilis, NO.10707, pH 7, read-out: MIC (minimum growth inhibitory concentration), BS: Bacillus subtilis No. 10707
# [16] = Klebsiella pneumoniae, ATCC10031, pH 7, read-out: MIC (minimum growth inhibitory concentration)
# [17] = Escherichia coli, ATCC26, pH 7, read-out: MIC (minimum growth inhibitory concentration), EC: Escherichia coli ATCC 26
# [18] = read-out: ILS (increased life span)
compound,measurement,setting,value
COCOC1/C=C(\C)CCC2(CC(=O)NC(C)c3nc(cs3)/C=C\C=C\C1=O)[S+]([O-])SC(=O)C2(C)O (centres unmarked) [Compound 30],MIC,[1]; [7],0.065 µg/mL
same,MIC,[2]; [8],0.13 µg/mL
same,MIC,[3]; [9],0.033 µg/mL
same,MIC,[4]; [10],1 µg/mL
same,MIC,[5]; [11],8.3 µg/mL
CCCCCCCC(=O)OCSC(=O)C(C)(O)C12CC/C(C)=C/C(O)C(=O)/C=C/C=C\c3csc(n3)C(C)N(C(=O)C1)[S+]2[O-] (centres unmarked) [Compound 84],MIC,[1]; [7],0.39 µg/mL
same,MIC,[2]; [8],0.39 µg/mL
same,MIC,[3]; [9],0.049 µg/mL
same,MIC,[4]; [10],0.098 µg/mL
CC1=CC(OC(=O)CNC(=O)CNC(=O)c2ccccc2)C(=O)C=CC=Cc2csc(n2)C(C)N2C(=O)CC(C(C)(O)C(=O)SCc3oc(=O)oc3C)(CC1)[S+]2[O-] (centres unmarked) [Compound 167],MIC,[1]; [7],2.1 µg/mL
same,MIC,[2]; [8],2.1 µg/mL
same,MIC,[3]; [9],2.1 µg/mL
same,MIC,[4]; [10],2.1 µg/mL
same,ILS at 16 mg/kg,[6]; [12],90%
CCOC(C)OC1/C=C(\C)CCC2(C(C)(O)C(=O)SCc3oc(=O)oc3C)CC(=O)N(C(C)c3nc(cs3)/C=C\C=C\C1=O)[S+]2[O-] (centres unmarked) [Compound 87],MIC,[1]; [7],54 µg/mL
same,MIC,[2]; [8],0.85 µg/mL
same,MIC,[3]; [9],0.11 µg/mL
same,MIC,[4]; [10],1.7 µg/mL
same,MIC,[5]; [11],6.8 µg/mL
C/C1=C\C(O)C(=O)/C=C/C=C\c2csc(n2)C(C)N2C(=O)CC(C(C)(O)C(=O)SCOC(=O)C3CCCCC3)(CC1)[S+]2[O-] (centres unmarked) [Compound 80],MIC,[1]; [13],5.2 µg/mL
same,MIC,[2]; [14],2.6 µg/mL
same,MIC,[3]; [15],0.041 µg/mL
COC1(OC2C=C(C)CCC3(C(C)(O)C(=O)SCc4oc(=O)oc4C)CC(=O)N(C(C)c4nc(cs4)C=CC=CC2=O)[S+]3[O-])CCSCC1 (centres unmarked) [Compound 127],MIC,[1]; [7],0.65 µg/mL
same,MIC,[2]; [8],0.65 µg/mL
same,MIC,[3]; [9],0.041 µg/mL
same,MIC,[4]; [10],2.6 µg/mL
same,ILS at 16 mg/kg,[6]; [12],52%
C/C1=C\C(OC2CCCCO2)C(=O)/C=C/C=C\c2csc(n2)C(C)NC(=O)CC2(CC1)[S+]([O-])SC(=O)C2(C)O (centres unmarked) [Compound 18],MIC,[1]; [13],0.16 µg/mL
same,MIC,[2]; [14],0.16 µg/mL
same,MIC,[3]; [15],0.041 µg/mL
same,MIC,[4]; [16],2.6 µg/mL
same,MIC,[5]; [17],1.3 µg/mL
COC1(OC2/C=C(\C)CCC3(CC(=O)NC(C)c4nc(cs4)/C=C\C=C\C2=O)[S+]([O-])SC(=O)C3(C)O)CCOCC1 (centres unmarked) [Compound 90],MIC,[1]; [7],0.041 µg/mL
same,MIC,[2]; [8],0.041 µg/mL
same,MIC,[3]; [9],0.02 µg/mL
same,MIC,[4]; [10],0.16 µg/mL
same,MIC,[5]; [11],0.65 µg/mL
C/C1=C\C(O)C(=NOCc2ccccc2)/C=C/C=C\c2csc(n2)C(C)NC(=O)CC2(CC1)[S+]([O-])SC(=O)C2(C)O (centres unmarked) [Compound 69],MIC,[1]; [7],0.028 µg/mL
same,MIC,[2]; [8],0.057 µg/mL
same,MIC,[3]; [9],0.028 µg/mL
same,MIC,[4]; [10],0.23 µg/mL
same,MIC,[5]; [11],1.8 µg/mL
C/C1=C\C(OCOCc2ccccc2)C(=O)/C=C/C=C\c2csc(n2)C(C)N2C(=O)CC(C(C)(O)C(=O)SCc3oc(=O)oc3C)(CC1)[S+]2[O-] (centres unmarked) [Compound 61],MIC,[1]; [13],0.65 µg/mL
same,MIC,[2]; [14],0.65 µg/mL
same,MIC,[3]; [15],0.081 µg/mL
same,MIC,[5]; [17],2.6 µg/mL
CCOC(=O)OC1/C=C(\C)CCC2(CC(=O)NC(C)c3nc(cs3)/C=C\C=C\C1=O)[S+]([O-])SC(=O)C2(C)O (centres unmarked) [Compound 10],MIC,[1]; [7],0.26 µg/mL
same,MIC,[2]; [8],0.26 µg/mL
same,MIC,[3]; [9],0.13 µg/mL
same,MIC,[4]; [10],4.2 µg/mL
same,MIC,[5]; [11],4.2 µg/mL
CC(=O)OC1/C=C(\C)CCC2(CC(=O)NC(C)c3nc(cs3)/C=C\C=C\C1=O)[S+]([O-])SC(=O)C2(C)O (centres unmarked) [Compound 1],MIC,[1]; [7],0.52 µg/mL
same,MIC,[2]; [8],0.52 µg/mL
same,MIC,[3]; [9],0.26 µg/mL
same,MIC,[4]; [10],17 µg/mL
C/C1=C\C(OC(=O)OCC(C)C)C(=O)/C=C/C=C\c2csc(n2)C(C)N2C(=O)CC(C(C)(O)C(=O)SCc3oc(=O)oc3C)(CC1)[S+]2[O-] (centres unmarked) [Compound 54],MIC,[1]; [13],0.13 µg/mL
same,MIC,[2]; [14],0.13 µg/mL
same,MIC,[5]; [17],0.018 µg/mL
same,ILS at 2 mg/kg,[6]; [18],42%
COC1(OC2C=C(C)CCC3(C(C)(O)C(=O)SCc4oc(=O)oc4C)CC(=O)N(C(C)c4nc(cs4)C=CC=CC2=O)[S+]3[O-])CCCCC1 (centres unmarked) [Compound 126],MIC,[1]; [7],1 µg/mL
same,MIC,[2]; [8],1 µg/mL
same,MIC,[3]; [9],0.033 µg/mL
same,MIC,[4]; [10],4.2 µg/mL
COC(C)(C)OC1/C=C(\C)CCC2(C(C)(O)C(=O)SCc3oc(=O)oc3C)CC(=O)N(C(C)c3nc(cs3)/C=C\C=C\C1=O)[S+]2[O-] (centres unmarked) [Compound 121],MIC,[1]; [7],0.78 µg/mL
same,MIC,[2]; [8],0.78 µg/mL
same,MIC,[3]; [9],0.26 µg/mL
same,MIC,[4]; [10],0.39 µg/mL
C/C1=C\C(O)C(=O)/C=C/C=C\c2csc(n2)C(C)N2C(=O)CC(C(C)(O)C(=O)SCOC(=O)C3CCC3)(CC1)[S+]2[O-] (centres unmarked) [Compound 78],MIC,[1]; [13],9.4 µg/mL
same,MIC,[2]; [14],4.7 µg/mL
same,MIC,[3]; [15],0.073 µg/mL
same,MIC,[4]; [16],2.3 µg/mL
CC1=CC(OC(=O)CNC(=O)CN(C)C(=O)OCc2ccccc2)C(=O)C=CC=Cc2csc(n2)C(C)N2C(=O)CC(C(C)(O)C(=O)SCc3oc(=O)oc3C)(CC1)[S+]2[O-] (centres unmarked) [Compound 172],MIC,[1]; [13],1 µg/mL
same,MIC,[2]; [14],2.1 µg/mL
same,MIC,[3]; [15],1 µg/mL
same,MIC,[4]; [16],1 µg/mL
same,ILS at 4 mg/kg,[6]; [18],65%
C/C1=C\C(OC(=O)OCC2c3ccccc3-c3ccccc32)C(=O)/C=C/C=C\c2csc(n2)C(C)NC(=O)CC2(CC1)[S+]([O-])SC(=O)C2(C)O (centres unmarked) [Compound 15],MIC,[1]; [7],0.081 µg/mL
same,MIC,[2]; [8],0.16 µg/mL
same,MIC,[3]; [9],0.041 µg/mL
same,ILS at 16 mg/kg,[6]; [12],63%
CC1=CC(OC2CCCCO2)C(=NO)C=CC=Cc2csc(n2)C(C)N2C(=O)CC(C(C)(O)C(=O)SCc3oc(=O)oc3C)(CC1)[S+]2[O-] (centres unmarked) [Compound 125],ILS at 16 mg/kg,[6]; [12],54%
CC1=CC(OC(=O)CCNC(=O)CCNC(=O)OCc2ccccc2)C(=O)C=CC=Cc2csc(n2)C(C)N2C(=O)CC(C(C)(O)C(=O)SCc3oc(=O)oc3C)(CC1)[S+]2[O-] (centres unmarked) [Compound 177],ILS at 32 mg/kg,"[6]; 32 mg/kg, single i.p. 24 hours after transplantation, CDF1 mice, 30 days observation",52%
C/C1=C\C(OC(=O)OCc2ccccc2)C(=O)/C=C/C=C\c2csc(n2)C(C)N2C(=O)CC(C(C)(O)C(=O)SCc3oc(=O)oc3C)(CC1)[S+]2[O-] (centres unmarked) [Compound 56],ILS at 1 mg/kg,[6]; [18],63%
C/C1=C\C(OC(=O)Oc2ccccc2)C(=O)/C=C/C=C\c2csc(n2)C(C)NC(=O)CC2(CC1)[S+]([O-])SC(=O)C2(C)O (centres unmarked) [Compound 12],ILS at 1 mg/kg,"[6]; 1.0 mg/kg, single i.p. 24 hours after transplantation, CDF1 mice, 30 days observation, read-out: ILS (increased life span)",44%
C/C1=C\C(OC(=O)Oc2ccccc2)C(=O)/C=C/C=C\c2csc(n2)C(C)N2C(=O)CC(C(C)(O)C(=O)SCc3oc(=O)oc3C)(CC1)[S+]2[O-] (centres unmarked) [Compound 55],ILS at 1 mg/kg,[6]; [18],40%
CC1=CC(OC(=O)CCNC(=O)CNC(=O)OCc2ccccc2)C(=O)C=CC=Cc2csc(n2)C(C)N2C(=O)CC(C(C)(O)C(=O)SCc3oc(=O)oc3C)(CC1)[S+]2[O-] (centres unmarked) [Compound 176],ILS at 16 mg/kg,[6]; [12],75%
